Test results from US20180290964A1, “CRYSTALLINE SOLID FORMS OF THE ACETATE SALT OF (1S,3S,4R)-4-((3AS,4R,5S,7AS)-4-(AMINOMETHYL)-7A-METHYL-1-METHYLENEOCTAHYDRO-1H-INDEN-5-YL)-3-(HYDROXYMETHYL)-4-METHYLCYCLOHEXANOL” (Aquinox Pharmaceuticals (Canada) Inc., priority 2015, published 2018).
“Also recorded” adds a separate entry of the source.

Columns and labels:
[1] = Accelerated aging analysis by XRPD (Method J); format: physicochemical; conditions: 40° C. and 75% relative humidity for 48 hours (2 days)
Description: Samples collected from the crystallization conditions were subjected, as is, to accelerated aging conditions of 40° C. and 75% relative humidity for 48 hours, via standard methods and analyzed by XRPD.
Dry solid samples from Examples 1 and 2, were transferred into a boron-glass capillary with 0.3 mm outer diameter. The capillary was mounted on the goniometer head and placed in the D8 Advance Bruker-AXS Diffractometer equipped with solid state LynxEye detector. The capillary was spinning during data recording, at 15 rpm. The XRPD platform was calibrated using Silver Behenate for the long d-spacings and Corundum for the short d spacings.
Data collection for Compound 1 Form A and Compound 1 Form B, were carried out, in transmission mode, at ambient conditions (˜23° C. and ˜100 kPa) using monochromatic CuKα1 radiation (1.54056 Å) in the 2Θ region between 4° and 45°, with an exposure time of 90 s for each frame and 0.016° increments. No additional corrections were made during data collection.

[2] = Handling in the presence of water (Example 8, methanol/water 60/40), form checked by XRPD; format: physicochemical; conditions: handled in the presence of water, 40% water (Example 8)
Description: 20.0 mg of amorphous Compound 1 was solid dosed in a 1.8 mL vial and 100 μL of a methanol/water mixture (60/40 (v/v)) was added at ambient temperature. The solution was subjected to a temperature profile of heating and cooling between 50° C. and 5° C. for three cycles, each heating cycle was at 10° C./hr while the cooling cycles were at −20° C./hr, −10° C./hr and −5° C./hr, for each cycle, respectively, finishing at ambient temperature. During the entire experiment the mixture was stirred at 30 rpm using a magnetic stirrer and a TEFLON®-coated magnetic stirring bar with dimensions 7mm in length and 2 mm in width.
Upon completion of the thermo-profile, the solid was collected by centrifugation (3000 rpm for 10 minutes) followed by solvent mixture removal by Pasteur pipette and dried under ambient conditions for one hour, before being analyzed by XRPD.

- Stability to exposure to water / hydrate formation (XRPD) [2]: resistant to hydrate formation
SMILES: C=C1CC[C@H]2[C@H](CN)[C@@H]([C@@]3(C)CC[C@H](O)C[C@@H]3CO)CC[C@]12C.CC(=O)O [Compound 1 Form A, acetate salt of (1S,3S,4R)-4-((3aS,4R,5S,7aS)-4-(aminomethyl)-7a-methyl-1-methyleneoctahydro-1H-inden-5-yl)-3-(hydroxymethyl)-4-methylcyclohexanol]
- Solid form stability after accelerated aging (XRPD diffractogram versus FIG. 2) [1]: equivalent to FIG. 2; also recorded: without converting to another form
